Experimental findings from US20020004058A1, “Immunomodulating and antiinflammatory agent” (priority 1993, published 2002) are described below.

Experiment [1] deals with TNP-specific DTH reaction. Kind of experiment: TNP-specific DTH reaction (paw swelling) in mice sensitized with TNP-SRBC. The class given is in vivo, male BALB/c mice. To be noted: for Swelling in Paws After 24 Hrs.: difference right/left paw 24 hours after TNB induction on day 14; for Swelling in Paws After 24 Hrs. / Swelling in Paws After 48 Hrs.: drugs by hypodermic injection four days from sensitization; for Swelling in Paws After 48 Hrs.: difference right/left paw 48 hours after TNB induction on day 14; for action to the delayed type hypersensitivity (DTH), in words: hypodermic injection four days from sensitization. The protocol: (§1) Trinitrobenzenesulfonic acid (TNBS) was dissolved in a physiological saline solution buffered with phosphoric acid to prepare a solution (40 mg/7.0 ml; pH 7.2) and then 1 ml of sheep red cell pellets was dropped thereinto with stirring. The mixture was allowed to stand at room temperature with stirring for several times under a light-shielding state and washed with a physiological saline solution three times. Then it was centrifuged at 3,000 rpm for five minutes and made into a solution of 5×10^9 cells/ml using a physiological saline solution.
The mice were sensitized with TNP-SRBC as described in paragraph (2) above. On the 14th day, 0.025 ml of TNB (4.7 mg/ml) was injected into the right hind paw to induce a TNP-specific DTH reaction. After 24 hours and 48 hours from the induction, the thickness of both paws was measured using a dial gauge. The difference in the thickness between the right and left paws was expressed as the intensity of the DTH reaction. […] This measuring system for the DTH reaction can be subjected to further tests using the same mice as in the case of the antibody production system of paragraph (2) above.
(§2) The above-mentioned test system was used for checking the action of: (a) the histamine-added mouse gamma-globulin (150 mg/kg/day) (the product of the present invention), (b) cyclosporin A (100 mg/kg/day), (c) cyclophosphamide (100 mg/kg/day), (d) prednisolone ([…]) and (e) levamizole (5 mg/kg/day) towards the anti-TNP antibody production and to the TNP-specific DTH reaction. The drugs were administered by hypodermic injection four days from the sensitization with TNP-SRBC.

Experiment [2] has as its system anti-TNP antibody production. As to the kind of experiment: Production of a TNP-specific antibody (anti-TNP IgM and IgG, ELISA) in mice sensitized with TNP-SRBC. The experiment is classed as in vivo, male BALB/c mice. The note with it: hypodermic injection four days from sensitization. As for the experimental part:
as §1
TNP-SRBC (10^9 cells) was intraperitoneally administered to male BALB/c mice of six to eight weeks age and the anti-TNP antibody in serum was measured by an enzymatic immunoassay (ELISA) using a dinitrophenyl-bovine serum albumin (DNP-BSA).
as §2
For orientation: An ELISA detects its analyte on a solid surface through an enzyme-linked reagent.

Experiment [3] deals with eosinophils exudated to peritoneum. Kind of experiment: Hypereosinophilic model induced by ragweed pollen antigen. The experiment is classed as in vivo, female BALB/c mice. As for the experimental part:
A ragweed pollen extract (which was diluted to an extent of 1,000 times using a physiological saline solution) was hypodermically injected into female BALB/c mice of six to eight weeks age for sensitization at the dose of 0.1 ml on the initiation day and on the first day and 0.2 ml on the sixth, eighth and fourteenth days. On the twentieth day, 0.2 ml of a 1,000 times diluted ragweed antigen was intraperitoneally injected into the mice to induce the reaction. On the 24th hour after the induction, the peritoneal exudate cells were recovered and subjected to a Giemsa staining and the total cell numbers, number of eosinophils, number of neutrophils and number of mononuclear cells were counted. As a result, the number of the eosinophils peaked 24 hours after the induction. […] The above-mentioned hypereosinophilic models were used for checking the action towards the hypereosinophilicity by a hypodermic injection of the product of the present invention. Thus, histamine-added mouse gamma-globulin, at a dose of 3 mg/mouse/day twice a week for three weeks was administered until the induced day. Further tests were conducted by administering the corresponding amount of each of histamine (dihydrochloride) and mouse gamma-globulin which are the constituting components of the histamine-added mouse gamma-globulin.

Experiment [4] has the same test system. As to the kind of experiment: Hypereosinophilic model induced by platelet activating factor (PAF). The class given is in vivo, female BALB/c mice. The protocol:
A PAF (5 micrograms/200 microliters) was intraperitoneally injected into female BALB/c mice of six to eight weeks age to induce the reaction. After 24 hours from the induction, the peritoneal exudate cells were recovered and the number of the eosinophils were counted.

Turning to `O=P1(N(CCCl)CCCl)NCCCO1` (stereo not shown) [Cyclophosphamide, cyclophosphamide], in experiment [1], the “Swelling in Paws After 24 Hrs.” value is 13.3 ± 2.1 ×10^−2 mm; the “Swelling in Paws After 48 Hrs.” value is on record as 15.8 ± 2.4 ×10^−2 mm; the “action to the delayed type hypersensitivity (DTH), in words” value (shortened to “action … (DTH), in words”) is listed as “clear suppressive actions”. Also, in experiment [2], the “action upon anti-TNP IgG antibody production (FIG. 2), in words” value was “significantly suppressed” and the “action upon anti-TNP IgM antibody production (FIG. 1), in words” value is given as “significantly suppressed”.

On to `Cl.Cl.NCCc1c[nH]cn1` [Histamine, histamine (dihydrochloride)], for which, in experiment [3] (ragweed antigen induced, 24 h after induction, product 3 mg/mouse/day s.c. twice a week for three weeks, components in corresponding amount, cyclosporin A 100 mg/kg/day three days), the “Number of Eosinophils Exudated to Peritoneum” value is given as 3.4 ± 0.6 ×10^5 cells. In experiment [3] (twice a week for three weeks until the induced day), the “suppression of eosinophil exudation into peritoneum, ragweed pollen antigen model, in words” value is given as “not observed”. Further, the “Number of Exudated Eosinophils to Peritoneum” value in experiment [4] (PAF 5 micrograms i.p., 24 hours after induction) is on record as 2.2 ± 0.8 ×10^5 cells. Besides, the “suppressive action upon hypereosinophilicity induced by PAF, in words” value in experiment [4] (same manner of administration as ragweed model) is given as “not observed”.

As for `c1ccc([C@H]2CN3CCSC3=N2)cc1` [Lavamizole, levamizole], in experiment [1], the “Swelling in Paws After 24 Hrs.” value was 40.0 ± 6.5 ×10^−2 mm; the “Swelling in Paws After 48 Hrs.” value was 20.0 ± 5.0 ×10^−2 mm; the “action … (DTH), in words” value is recorded as “no significant effect”. In addition, in experiment [2], the “action upon anti-TNP IgG antibody production (FIG. 2), in words” value was “did not significantly affect” and the “action upon anti-TNP IgM antibody production (FIG. 1), in words” value is given as “did not significantly affect”.

Turning to `C[C@]12C=CC(=O)C=C1CC[C@@H]1[C@@H]2[C@@H](O)C[C@@]2(C)[C@H]1CC[C@]2(O)C(=O)CO` [Prednisolone, prednisolone], in experiment [1], the “Swelling in Paws After 24 Hrs.” value is recorded as 30.0 ± 5.6 ×10^−2 mm; the “Swelling in Paws After 48 Hrs.” value is 8.3 ± 3.3 ×10^−2 mm; the “action … (DTH), in words” value is “weak suppressive action”. In experiment [2], the “action upon anti-TNP IgG antibody production (FIG. 2), in words” value is recorded as “did not significantly affect” and the “action upon anti-TNP IgM antibody production (FIG. 1), in words” value was “did not significantly affect”.
